Consider three compounds from US11406620B2, “Use of carbamate compound for preventing or treating diseases associated with increase in late sodium current” (SK BIOPHARMACEUTICALS CO., LTD., priority 2017, dated 2022).

The target of data set [1] is hNav1.5 sodium channel, fast current (Homo sapiens, UniProt Q14524). The data set can be described thus: Whole cell patch clamp, fast sodium current of hNav1.5 in HEK293 cells. The following applies: pH 7.4. The procedure:
(§1) To study the […] Nav1.5 channel, a cell line stably expressing […] (Gene ID: 6331, https://www.ncbi.nlm.nih.gov/gene/6331) encoding a human Nav1.5 channel in HEK293 cells was used.
(§2) Pulse-protocol uses a protocol that gives a −15 mV stimulus for 385 ms at a holding voltage of −120 mV, and then returns to a holding voltage of −120 mV, and the current generated with the −15 mV stimulus (fast current) and the current just before returning to −120 mV (late current) was measured.
(§3) The composition of the external solution used in the experiment is as follows: 137 mM NaCl, 4 mM KCl, 1.8 mM CaCl2) mM, 1 mM MgCl2, 10 mM HEPES, 11 mM D-Glucose, pH 7.4 (NaOH), 280 mOsm.
(§4) The composition of the internal solution used in the experiment is as follows: 130 mM CsCl, 1 mM MgCl2, 7 mM NaCl, 5 mM HEPES, 5 mM EGTA, pH 7.2 (CsOH), 270 mOsm.

Data set [2] concerns the target hNav1.5 sodium channel, late current (Homo sapiens, UniProt Q14524). The data set can be described thus: Whole cell patch clamp, late sodium current of hNav1.5 in HEK293 cells (veratridine-activated). The note with it: human, pH 7.4. As to the method:
as §1, §2, §3, §4
For orientation: The patch-clamp technique gives a direct electrical read-out from membranes.

Data set [3] concerns the target human recombinant sodium ion channel Nav1.5 (hNav1.5), late current (Homo sapiens, UniProt Q14524). The description is as above. As to the method: as §1, §2, §3, §4
The mark [4] stands for this setting: HEK293 cells stably expressing human Nav1.5 (SCN5A).

hNav1.5 sodium channel, late current, sequence (Q14524 whole entry): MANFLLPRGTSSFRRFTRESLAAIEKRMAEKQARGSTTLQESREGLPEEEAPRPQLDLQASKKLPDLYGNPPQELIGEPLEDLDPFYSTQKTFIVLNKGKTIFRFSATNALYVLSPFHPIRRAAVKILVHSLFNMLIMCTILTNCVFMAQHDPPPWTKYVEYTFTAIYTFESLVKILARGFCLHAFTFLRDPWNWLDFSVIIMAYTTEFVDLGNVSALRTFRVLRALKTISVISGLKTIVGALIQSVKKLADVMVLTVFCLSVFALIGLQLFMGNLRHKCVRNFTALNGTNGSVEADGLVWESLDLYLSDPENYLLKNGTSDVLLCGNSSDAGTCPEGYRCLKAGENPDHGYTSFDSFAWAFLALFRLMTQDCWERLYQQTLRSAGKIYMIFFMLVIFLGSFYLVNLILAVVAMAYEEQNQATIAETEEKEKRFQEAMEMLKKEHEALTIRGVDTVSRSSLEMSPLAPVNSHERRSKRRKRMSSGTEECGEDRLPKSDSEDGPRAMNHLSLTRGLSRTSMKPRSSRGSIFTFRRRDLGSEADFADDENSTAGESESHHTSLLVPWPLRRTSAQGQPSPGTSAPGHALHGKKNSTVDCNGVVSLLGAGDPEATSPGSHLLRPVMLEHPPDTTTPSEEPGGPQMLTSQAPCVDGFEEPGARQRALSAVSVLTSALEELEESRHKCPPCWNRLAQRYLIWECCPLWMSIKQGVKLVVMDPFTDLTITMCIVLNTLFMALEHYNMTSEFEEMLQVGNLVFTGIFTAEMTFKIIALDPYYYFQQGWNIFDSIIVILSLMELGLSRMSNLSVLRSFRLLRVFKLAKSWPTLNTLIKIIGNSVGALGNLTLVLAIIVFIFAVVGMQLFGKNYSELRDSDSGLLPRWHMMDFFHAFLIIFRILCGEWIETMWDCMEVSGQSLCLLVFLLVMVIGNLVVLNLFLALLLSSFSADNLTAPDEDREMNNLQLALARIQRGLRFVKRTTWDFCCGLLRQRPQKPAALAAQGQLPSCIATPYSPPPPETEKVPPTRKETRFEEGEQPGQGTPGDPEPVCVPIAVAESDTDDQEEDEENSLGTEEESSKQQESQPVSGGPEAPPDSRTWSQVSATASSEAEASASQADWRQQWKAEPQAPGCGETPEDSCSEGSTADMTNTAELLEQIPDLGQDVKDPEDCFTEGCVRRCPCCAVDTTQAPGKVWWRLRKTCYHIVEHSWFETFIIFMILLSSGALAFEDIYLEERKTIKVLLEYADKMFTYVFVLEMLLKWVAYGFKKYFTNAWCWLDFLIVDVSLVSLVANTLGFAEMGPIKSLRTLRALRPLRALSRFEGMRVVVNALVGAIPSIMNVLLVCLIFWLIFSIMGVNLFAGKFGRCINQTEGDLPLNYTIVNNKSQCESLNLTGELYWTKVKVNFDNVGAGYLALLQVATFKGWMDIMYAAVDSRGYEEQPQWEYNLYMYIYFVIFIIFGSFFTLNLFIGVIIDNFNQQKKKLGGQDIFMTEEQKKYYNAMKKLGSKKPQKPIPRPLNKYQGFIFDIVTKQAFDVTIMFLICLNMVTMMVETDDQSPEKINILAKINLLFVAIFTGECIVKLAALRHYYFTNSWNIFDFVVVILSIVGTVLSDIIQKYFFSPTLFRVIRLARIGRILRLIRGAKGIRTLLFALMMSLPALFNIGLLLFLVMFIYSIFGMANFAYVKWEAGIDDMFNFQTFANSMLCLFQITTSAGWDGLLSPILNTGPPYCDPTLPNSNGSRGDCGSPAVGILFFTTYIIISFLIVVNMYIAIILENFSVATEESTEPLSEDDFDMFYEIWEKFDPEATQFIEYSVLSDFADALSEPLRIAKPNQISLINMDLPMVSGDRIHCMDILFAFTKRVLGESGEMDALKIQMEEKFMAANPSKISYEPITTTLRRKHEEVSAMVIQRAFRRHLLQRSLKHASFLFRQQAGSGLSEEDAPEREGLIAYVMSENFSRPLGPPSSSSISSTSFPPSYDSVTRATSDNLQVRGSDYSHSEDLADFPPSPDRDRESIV
human recombinant sodium ion channel Nav1.5 (hNav1.5), late current, sequence (Q14524 whole entry): as above

Broadly, the inhibition is the change of the read-out against control, counted positive when it falls. Read a low inhibition as little suppression. For `NC(=O)N1c2ccccc2C=Cc2ccccc21` [Carbamazepine], the inhibition at 10 μM came to 7.7% in data set [1] (setting [4]) and 20.4% in data set [2] (setting [4]). Besides, the inhibition at 30 μM was 12.3% in data set [1] (setting [4]) and 36.2% in data set [2] (setting [4]). Besides, the inhibition at 100 μM was determined as 24.5% in data set [1] (setting [4]) and 65.4% in data set [2] (setting [4]). Further, the inhibition at 300 μM in data set [1] (setting [4]) worked out at 51.4%; in data set [2] (setting [4]), 86.9%. Further, the “Inhibition ratio of late current/fast current” value in data set [3] (10 μM) is recorded as 2.6; in data set [3] (30 μM), 2.9; in data set [3] (100 μM), 2.7; in data set [3] (300 μM), 1.7.
As for `Nc1nnc(-c2cccc(Cl)c2Cl)c(N)n1` [Lamotrigine, lamotrigine], the inhibition at 10 μM in data set [1] (setting [4]) came out at 8.3%; in data set [2] (setting [4]), 10.7%. Further, the inhibition at 30 μM in data set [1] (setting [4]) was 16.6%; in data set [2] (setting [4]), 32.9%. Also, the inhibition at 100 μM in data set [1] (setting [4]) is 29%; in data set [2] (setting [4]) it was 56.7%. The inhibition at 300 μM in data set [1] (setting [4]) was 51.2%; in data set [2] (setting [4]) it was 80.1%. Besides, the “Inhibition ratio of late current/fast current” value is listed as 1.3 in data set [3] (10 μM), 2.0 in data set [3] (30 μM), 2.0 in data set [3] (100 μM) and 1.6 in data set [3] (300 μM).
In the case of `NC(=O)O[C@@H](Cn1ncnn1)c1ccccc1Cl` [Test compound, carbamic acid (R)-1-(2-chlorophenyl)-2-tetrazol-2-yl-ethyl ester], the inhibition at 10 μM in data set [1] worked out at 3%; in data set [2], 11.4%. In addition, the inhibition at 30 μM amounted to 5.7% in data set [1] and 24% in data set [2]. In addition, the inhibition at 100 μM turned out to be 13% in data set [1] and 33.9% in data set [2]. In addition, the values for the inhibition at 300 μM in data set [1] and in data set [2] were 26.2% and 49.8%, respectively. Further, the “Inhibition ratio of late current/fast current” value turned out to be 3.8 in data set [3] (10 μM), 4.2 in data set [3] (30 μM), 2.6 in data set [3] (100 μM) and 1.9 in data set [3] (300 μM). Also, in data set [3] (at a concentration in the drug effective concentration range, compared to the comparative compounds), the “Selectivity of inhibition of late versus fast sodium current (in words)” value is given as “inhibited the late sodium current more selectively than the fast sodium current”.
